{
  "source": "patent US6652860B1",
  "about": "“Peptide, apoEp 1.B, compositions and uses thereof” (University of Western Ontario, priority 1997, dated 2003)",
  "key": {"[1]": {"system": "iliofemoral artery of the rat", "assay": "Balloon angioplasty injury model, plaque development in iliofemoral artery", "assay_type": "in vivo", "details": "treated rats", "description": "To investigate the role of apoEp1.B peptide in inflammation, particularly in response to arterial injury, a balloon angioplasty injury model which has been well characterized by Dr. Alex Lucas (Lucas et al. 1996 Circ. 94:2898-900) was used. 300 μg/ml of apoEp1 or apoEp1.B peptide were infused intra-arterially immediately prior to angioplasty at the site of injury in the iliofemoral artery of the rat. Positive control SERP-1 and negative control saline alone were also used. The rats were monitored carefully and euthanized 6 weeks after treatment and iliofemoral arteries were assessed for plaque development by histochemistry."}, "[2]": {"system": "Unprimed splenocytes, enriched spleen monocytes and monocytic PU5-1.8 and J77A4.1 cell lines", "assay": "Dendritic-like cell morphology in vitro", "assay_type": "cell-based, BALB/c mice", "details": "after 2 hr, optimally at 100 μg/ml", "description": "Unprimed splenocytes, enriched spleen monocytes and monocytic PU5-1.8 and J77A4.1 cell lines from BALB/c mice were incubated with 0, 1, 10, or 100 μg/ml apoEp1.B (239-252) or negative control apoEp1.D (236-249) peptide to assess activity. […] After 24 hr, morphologically these cells appeared less rounded, more granular."}, "PU5-1.8 cells [3]": {"system": "PU5-1.8 cells", "assay": "DC marker changes (B7-1 FACS) of PU5-1.8 cells incubated with modified apoEp1.B peptides", "assay_type": "cell-based, murine", "details": "20 hours", "description": "Murine monocytic PU5-1.8 and J77A1.4 transformed cell lines, human monoblastic leukemia THP-1 and U-937, and murine B cell lymphoma A20 cells were cultured in RPMI 1640 medium (Gibco Laboratories, Grand Island, N.Y.) containing […] 2ME, 10 mM HEPES, 2 mM glutamine, 5.0 IU/ml penicillin streptomycin (Gibco) and 10%. heat inactivated Fetal Bovine Serum (FBS) (Hyclone Laboratories Inc., Logan, Utah)(cRPMI).\n1×10^6 cells were washed with ice cold PBS and resuspended in 25 μl PBS and incubated with 10 μl normal mouse serum and fluorochrome conjugated anti-mouse D11a, CD11b, CD14, MHC class II, CD95, CD62L, CD62E, B7-1, B7-2 and ICAM-1 Pharmingen, Mississauga, Canada) monoclonal antibodies (mAb's) for 45 minutes on ice. endritic cell markers DEC-205, 33D1, CD11c (N418) unconjugated antibodies were imilarly treated, however, following primary antibody incubation,cells were washed 3 times and a secondary goat anti-rat (for 33D1 and DEC-205 ab's) and goat anti-hamster (for CD11c ab) fluorochrome-conjugated antibody was then added for 45 min on ice. Cells were then washed three times. All samples were resuspended in 300 μl PBS and the fluorescence of stained cells was analyzed on a FACScan flow cytometer (Becton Dickinson, Mountain View, Calif.) and data collected was analyzed using Lysis II (Becton-Dickinson) software. […]"}, "PU5-1.8 cells [4]": {"system": "PU5-1.8 cells", "assay": "DC-like surface marker expression on PU5-1.8 cells (FACS)", "assay_type": "cell-based, murine", "details": "100 μg/ml, 24 hr, 10^5 PU5-1.8 cells", "description": "(§1) 1×10^6 cells were washed with ice cold PBS and resuspended in 25 μl PBS and incubated with 10 μl normal mouse serum and fluorochrome conjugated anti-mouse D11a, CD11b, CD14, MHC class II, CD95, CD62L, CD62E, B7-1, B7-2 and ICAM-1 Pharmingen, Mississauga, Canada) monoclonal antibodies (mAb's) for 45 minutes on ice. endritic cell markers DEC-205, 33D1, CD11c (N418) unconjugated antibodies were imilarly treated, however, following primary antibody incubation,cells were washed 3 times and a secondary goat anti-rat (for 33D1 and DEC-205 ab's) and goat anti-hamster (for CD11c ab) fluorochrome-conjugated antibody was then added for 45 min on ice. Cells were then washed three times. All samples were resuspended in 300 μl PBS and the fluorescence of stained cells was analyzed on a FACScan flow cytometer (Becton Dickinson, Mountain View, Calif.) and data collected was analyzed using Lysis II (Becton-Dickinson) software.\n(§2) Morphologically apoEp1.B-treated cells appeared DC-like. This was confirmed this by FACS analysis. Unprimed BALB/c splenocytes and PU5-1.8 cells were incubated for 24 hr with 100 μg/ml apoEp1.B or control peptide apoEp1.D and then stained for FACS analysis.\nTo assess whether apoEp1.B-induced phenotypic changes are dose-dependent, 10^5 PU5-1.8 cells were incubated for 20 hr with 0 (medium), 1, 10 or 100 μg/ml apoEp1.B in 24-well plates and were then stained for FACS analysis. […]"}, "immune cells": {"system": "immune cells", "assay": "Activation and differentiation of immune cells", "assay_type": "cell-based"}, "[5]": {"system": "BALB/c naive T cells co-cultured with NOD splenocytes", "assay": "Mixed leukocyte reaction, T cell allostimulatory activity of treated APC's", "assay_type": "cell-based, mice", "details": "particularly at 4×10^3 APC's per well", "description": "Primary allogeneic MLR was set up with NOD splenocytes as stimulators and nylon wool enriched BALB/c naive T cells as responders. Stimulator cells were pre-incubated for 3 days with different combinations of apoEp1.B, GM-CSF, and PU5-1.8 supernatant containing TNF. Stimulator cells were then treated with mitomycin C (50 μg/ml, 20 min at 37° C.; Sigma) and co-cultured with 4×10^4 responder for 3 days at which time cells were pulsed with 50 μl [^3H]-TdR (0.5 μCi/well) for 24 hr. Cells were harvested (Tomtec) and [^3H]-TdR incorporation was measured on a Microbeta Liquid Scintillation Counter (Wallac). Each bar represents the mean cpm from triplicate cultures.\nTo measure the T cell allostimulatory or inhibitory ability of these DC's, 4×10^4 enriched BALB/c naive T cells were co-cultured with 40, 400, 4000 and 40,000 mitomycin C-treated NOD splenocytes which had been incubated with various stimualants for 3 d. T cell proliferation was measured following 3 days of co-culture by [^3H]-TdR incorporation. Bars represent the mean of triplicate wells (cpm+/−S.D.). * and ** represent p<0.05 and p<0.001, respectively in 2-way ANOVA's compared to medium alone (nil) controls. […] Upon combining responder T cells with APC, various exogenous factors were added, including 20 μg/ml Con A and 5 μg/ml apoEp1.B. Very little proliferation was detected in wells containing T cells alone or APC alone."}, "splenocytes": {"system": "splenocytes", "assay": "Surface marker expression on unprimed splenocytes (FACS)", "assay_type": "cell-based, mice", "details": "splenocytes (data not shown)", "description": "as §1, §2\nThere were no changes in the expression of CD16/32 at any time.\nUnprimed B6 and NOD splenocytes were incubated with 100 μg/ml apoEp1.B or apoEp1.D to determine whether apoEp1.B was strain-specific. […]"}},
  "note": "Where no end group is shown, it is not given here.",
  "data": [
    {"substance": "TQQIRLQAEIFQAR [apoEp1.B, TQQIRLQAEIFQAR]", "values": [
      {"measurement": "adverse effects", "setting": "[1]", "result": "No adverse effects were observed"}
    ]},
    {"substance": "apoEp1.D: negative control apoEp1.D (236-249) peptide (VAEVRAKLEEQAQQ; UniProt P02649 254-267, looked up, fragment)", "values": [
      {"measurement": "detachment from plastic plates and aggregation in suspension", "setting": "[2]", "result": "not"}
    ]},
    {"substance": "AQQIRLQAEAFQAR (listed as Homo sapiens) [human apoEp1.B]", "values": [
      {"measurement": "effect on surface marker changes compared to apoEp1.B", "setting": "PU5-1.8 cells [3]; 100 μg/ml, PU5-1.8 cells", "result": "slightly reduced effect"},
      {"measurement": "cell clustering and marker increase compared to murine apoEp1.B", "setting": "PU5-1.8 cells [4]", "result": "to a lesser degree"}
    ]},
    {"substance": "apoE: Human plasma VLDL purified apoE (Calbiochem) was used as native apoE", "values": [
      {"measurement": "induces activation and differentiation of immune cells", "setting": "immune cells", "result": "not"}
    ]},
    {"substance": "GM-CSF: cytokine used to pre-incubate stimulator cells in MLR", "values": [
      {"measurement": "allostimulation after APC pre-incubation", "setting": "[5]", "result": "dramatic increase in allostimulation"}
    ]},
    {"substance": "EEQ TQQ IRL QAE IFQ AR (EEQTQQIRLQAEIFQAR; Murine) [apoEp1]", "values": [
      {"measurement": "DC Marker Changes", "setting": "PU5-1.8 cells [3]; Table 1 elongations and truncations, 100 μg/ml peptide, 10^5 PU5-1.8 cells, B7-1 stain, FACS", "result": "slight"},
      {"measurement": "CD40 expression", "setting": "splenocytes", "result": "increase in CD40"},
      {"measurement": "L-selectin expression", "setting": "splenocytes", "result": "decrease in L-selectin"},
      {"measurement": "induces activation and differentiation of immune cells", "setting": "immune cells", "result": "does not induce DC's"}
    ]}
  ]
}
